# Measurements reported in PMC6506705 (2019).
# Legend:
# [1] = system: EA#14.3K42 non-labelled (DNA, aptamer) ATACCAGCTTATTCAATTTGAGGCGGGTGGGTGGGTTGAATA; assay: dye fluorescence melting profile, qualitative; conditions: 100 mM NaCl; 20 mM TRIS, 0.02% Tween 20, pH 7.6; 10x dye; 0.5-4 μM aptamer
# [2] = system: EA#14.3K31 non-labelled (DNA, aptamer) ATTCAATTTGAGGCGGGTGGGTGGGTTGAAT; assay: dye fluorescence melting profile, qualitative; conditions: 100 mM NaCl; 20 mM TRIS, 0.02% Tween 20, pH 7.6; 10x dye; 0.5-4 μM aptamer
smiles,measurement,setting,value
CCCN(CCCN(C)C)c1cc(C=C2Sc3ccccc3N2C)c2ccccc2[n+]1-c1ccccc1,binding,[1],yes
same,binding,[2],yes
